In the supplement of paper PMC10307832:

Experiments:
Test in all cases: relative viability (nuclei count vs DMSO), 5 days (fraction); higher = more cells survive
Bosutinib = compound: COc1cc(Nc2c(C#N)cnc3cc(OCCCN4CCN(C)CC4)c(OC)cc23)c(Cl)cc1Cl [Bosutinib]
Procedure, shortened: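 After an overnight hold at 37 °C, lung cancer cell lines in 1536-well plates were pinned with five library-drug doses (not always all listed), each √10 from the next, on vehicle-anchored plates. The cells stayed 5 days without fresh medium, then a one-step fix, permeabilisation and Hoechst stain preceded 4× imaging and MetaXpress nuclear counts. A plate passed only with control CV under 25% and at least one doubling. Viability is the median, over plates, of treated-well nuclei relative to vehicle-well nuclei.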

Bosutinib + Bortezomib = compound: COc1cc(Nc2c(C#N)cnc3cc(OCCCN4CCN(C)CC4)c(OC)cc23)c(Cl)cc1Cl [Bosutinib] + CC(C)C[C@H](NC(=O)[C@H](Cc1ccccc1)NC(=O)c1cnccn1)B(O)O [Bortezomib] (partner 0.002 µM)
Procedure, shortened: (§1)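 The day after seeding in 1536-well plates, lung cancer cell lines were treated by pin tool with a single drug, or with a fixed anchor-drug dose together with five library-drug doses (not always all listed) in √10 steps. After 5 days, a combined fix-and-stain solution (final 0.05% Triton X-100, 1% formaldehyde, 1 ug/ml Hoechst) was added. Nuclei counted on 4× images gave relative viability as treated counts over vehicle counts, reported as the median of duplicate plates.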

Bosutinib + Navitoclax = compound: COc1cc(Nc2c(C#N)cnc3cc(OCCCN4CCN(C)CC4)c(OC)cc23)c(Cl)cc1Cl [Bosutinib] + CC1(C)CCC(c2ccc(Cl)cc2)=C(CN2CCN(c3ccc(C(=O)NS(=O)(=O)c4ccc(N[C@H](CCN5CCOCC5)CSc5ccccc5)c(S(=O)(=O)C(F)(F)F)c4)cc3)CC2)C1 [Navitoclax] (partner 0.5 µM)
Procedure, shortened: as §1

Bosutinib + Foretinib = compound: COc1cc(Nc2c(C#N)cnc3cc(OCCCN4CCN(C)CC4)c(OC)cc23)c(Cl)cc1Cl [Bosutinib] + COc1cc2c(Oc3ccc(NC(=O)C4(C(=O)Nc5ccc(F)cc5)CC4)cc3F)ccnc2cc1OCCCN1CCOCC1 [Foretinib] (partner 0.25 µM)
Procedure, shortened: as §1

Bosutinib + Lapatinib = compound: COc1cc(Nc2c(C#N)cnc3cc(OCCCN4CCN(C)CC4)c(OC)cc23)c(Cl)cc1Cl [Bosutinib] + CS(=O)(=O)CCNCc1ccc(-c2ccc3ncnc(Nc4ccc(OCc5cccc(F)c5)c(Cl)c4)c3c2)o1 [Lapatinib] (partner 2 µM)
Procedure, shortened: as §1

Bosutinib + Pictilisib = compound: COc1cc(Nc2c(C#N)cnc3cc(OCCCN4CCN(C)CC4)c(OC)cc23)c(Cl)cc1Cl [Bosutinib] + CS(=O)(=O)N1CCN(Cc2cc3nc(-c4cccc5[nH]ncc45)nc(N4CCOCC4)c3s2)CC1 [Pictilisib] (partner 1 µM)
Procedure, shortened: as §1

Bosutinib + Crizotinib = compound: COc1cc(Nc2c(C#N)cnc3cc(OCCCN4CCN(C)CC4)c(OC)cc23)c(Cl)cc1Cl [Bosutinib] + C[C@@H](Oc1cc(-c2cnn(C3CCNCC3)c2)cnc1N)c1c(Cl)ccc(F)c1Cl [Crizotinib] (partner 1 µM)
Procedure, shortened: as §1

Bosutinib + Linsitinib = compound: COc1cc(Nc2c(C#N)cnc3cc(OCCCN4CCN(C)CC4)c(OC)cc23)c(Cl)cc1Cl [Bosutinib] + C[C@]1(O)C[C@@H](c2nc(-c3ccc4ccc(-c5ccccc5)nc4c3)c3c(N)nccn32)C1 [Linsitinib] (partner 1 µM)
Procedure, shortened: as §1

Bosutinib + Alpelisib = compound: COc1cc(Nc2c(C#N)cnc3cc(OCCCN4CCN(C)CC4)c(OC)cc23)c(Cl)cc1Cl [Bosutinib] + Cc1nc(NC(=O)N2CCC[C@H]2C(N)=O)sc1-c1ccnc(C(C)(C)C(F)(F)F)c1 [Alpelisib] (partner 2 µM)
Procedure, shortened: as §1

Bosutinib + Olaparib = compound: COc1cc(Nc2c(C#N)cnc3cc(OCCCN4CCN(C)CC4)c(OC)cc23)c(Cl)cc1Cl [Bosutinib] + O=C(c1cc(Cc2n[nH]c(=O)c3ccccc23)ccc1F)N1CCN(C(=O)C2CC2)CC1 [Olaparib] (partner 8 µM)
Procedure, shortened: as §1

Row | Cell Line | relative viability (Bosutinib; 0.01 µM) | relative viability (Bosutinib; 0.03162 µM) | relative viability (Bosutinib; 0.1 µM) | relative viability (Bosutinib; 1 µM) | relative viability (Bosutinib + Bortezomib; first compound 0.01 µM) | relative viability (Bosutinib + Bortezomib; first compound 0.03162 µM) | relative viability (Bosutinib + Bortezomib; first compound 0.1 µM) | relative viability (Bosutinib + Bortezomib; first compound 1 µM) | relative viability (Bosutinib + Navitoclax; first compound 0.01 µM) | relative viability (Bosutinib + Navitoclax; first compound 0.03162 µM) | relative viability (Bosutinib + Navitoclax; first compound 0.1 µM) | relative viability (Bosutinib + Navitoclax; first compound 1 µM) | relative viability (Bosutinib + Foretinib; first compound 0.01 µM) | relative viability (Bosutinib + Foretinib; first compound 0.03162 µM) | relative viability (Bosutinib + Foretinib; first compound 0.1 µM) | relative viability (Bosutinib + Foretinib; first compound 1 µM) | relative viability (Bosutinib + Lapatinib; first compound 0.01 µM) | relative viability (Bosutinib + Lapatinib; first compound 0.03162 µM) | relative viability (Bosutinib + Lapatinib; first compound 0.1 µM) | relative viability (Bosutinib + Lapatinib; first compound 1 µM) | relative viability (Bosutinib + Pictilisib; first compound 0.01 µM) | relative viability (Bosutinib + Pictilisib; first compound 0.03162 µM) | relative viability (Bosutinib + Pictilisib; first compound 0.1 µM) | relative viability (Bosutinib + Pictilisib; first compound 1 µM) | relative viability (Bosutinib + Crizotinib; first compound 0.01 µM) | relative viability (Bosutinib + Crizotinib; first compound 0.03162 µM) | relative viability (Bosutinib + Crizotinib; first compound 0.1 µM) | relative viability (Bosutinib + Crizotinib; first compound 1 µM) | relative viability (Bosutinib + Linsitinib; first compound 0.01 µM) | relative viability (Bosutinib + Linsitinib; first compound 0.03162 µM) | relative viability (Bosutinib + Linsitinib; first compound 0.1 µM) | relative viability (Bosutinib + Linsitinib; first compound 1 µM) | relative viability (Bosutinib + Alpelisib; first compound 0.01 µM) | relative viability (Bosutinib + Alpelisib; first compound 0.03162 µM) | relative viability (Bosutinib + Alpelisib; first compound 0.1 µM) | relative viability (Bosutinib + Alpelisib; first compound 1 µM) | relative viability (Bosutinib + Olaparib; first compound 0.01 µM) | relative viability (Bosutinib + Olaparib; first compound 0.03162 µM) | relative viability (Bosutinib + Olaparib; first compound 0.1 µM) | relative viability (Bosutinib + Olaparib; first compound 1 µM)
1 | Calu-6 | 1.01 | 1.02 | 0.976 | 0.837 | 1.01 | 0.954 | 1.02 | 0.905 | 0.814 | 0.801 | 0.757 | 0.821 | 0.927 | 0.888 | 0.932 | 0.772 | 1.15 | 1.14 | 1.11 | 0.893 | 0.937 | 0.923 | 0.867 | 0.834 | 0.747 | 0.796 | 0.798 | 0.788 | 1.05 | 0.957 | 0.96 | 0.794 | 0.927 | 1.07 | 0.958 | 0.824 | 0.596 | 0.561 | 0.598 | 0.472
2 | EBC-1 | 1.05 | 0.956 | 0.984 | 0.881 | 0.484 | 0.492 | 0.513 | 0.523 | 0.393 | 0.461 | 0.519 | 0.609 | 0.115 | 0.11 | 0.104 | 0.0985 | 0.216 | 0.221 | 0.187 | 0.204 | 0.347 | 0.463 | 0.404 | 0.358 | 0.199 | 0.185 | 0.183 | 0.191 | 0.93 | 0.906 | 0.937 | 0.916 | 0.787 | 0.798 | 0.833 | 0.736 | 0.693 | 0.737 | 0.659 | 0.658
